In patent US5189044A, “Isoquinoline-1,3-dione acetyl carbamates useful as aldose reductase inhibitors” (American Home Products Corporation, priority 1992, dated 1993):

Tests used:
[1] = tested on: aldose reductase; conditions: 10^-5 M; aldose reductase from bovine lens
Description: (c) The polyol determination was performed by a modification of the procedure of M. Kraml and L. Cosyns, Clin. Biochem., 2,373 (1969). Only two minor reagent changes were made: (a) The rinsing mixture was an aqueous 5% (w/v) trichloroacetic acid solution and (b) the stock solution was prepared by dissolving 25 mg of dulcitol in 100 ml of an aqueous trichloroacetic acid solution. [N.B.: For each experiment the average value found in the tissue from rats fed the glucose diet was subtracted from the individual values found in the corresponding tissue in galactose-fed rats to obtain the amount of polyol accumulated.] […] In the present case the procedure of Hayman and Kinoshita was modified in that the final chromatography step was omitted in the preparation of the enzyme from bovine lens.

[2] = tested on: dulcitol accumulation in the diaphragm; test: galactosemic rats, dulcitol (galactitol) accumulation in diaphragm; format: in vivo, rat (Sprague-Dawley); conditions: 4 days, vs untreated galactosemic rats
Description: (§1) The aldose reductase inhibiting property of the compounds of this invention and the utilization of the compounds in preventing, diminishing and alleviating diabetic complications are demonstrable in experiments using galactosemic rats, see Dvornik et al., Science, 182, 1146 (1973). Such experiments are exemplified hereinbelow after the listing of the following general comments pertaining to these experiments:
(§2) (a) Four or more groups of six male rats, 50-70 g, Sprague-Dawley strain, were used. The first group, the control group, was fed a mixture of laboratory chow (Rodent Laboratory Chow, Purina) and glucose at 20% (w/w %) concentration. The untreated galactosemic group was fed a similar diet in which galactose is substituted for glucose. The third group was fed a diet prepared by mixing a given amount of the test compound with the galactose containing diet. The concentration of the galactose in the diet of the treated groups was the same as that for the untreated galactosemic group.
(§3) (b) After four days, the animals were killed by euthanization. The lenses were removed from the eyes and weighed. The sciatic nerves were dissected as completely as possible and weighed. Both tissues when frozen can be kept up to two weeks before being analyzed for dulcitol.
(§4) The figures under N and D represent the percentage decrease of dulcitol accumulation in the tissues of the sciatic nerve and diaphragm, respectively, for treated rats as compared to untreated rats.

[3] = tested on: dulcitol accumulation in the sciatic nerve; test: galactosemic rats, dulcitol (galactitol) accumulation in sciatic nerve; format: in vivo, rat (Sprague-Dawley); conditions: 4 days, vs untreated galactosemic rats
Description: as §1, §2, §3, §4

SMILES	% Inhibition in vitro [1]	% Lowering Galacitol Accumulation in Vivo, Diaphragm ([2]; 48.8 mg/kg/day in diet)	% Lowering Galacitol Accumulation in Vivo, Diaphragm ([2]; 96.6 mg/kg/day in diet)	% Lowering Galacitol Accumulation in Vivo, Sciatic Nerve ([3]; 48.8 mg/kg/day in diet)	% Lowering Galacitol Accumulation in Vivo, Sciatic Nerve ([3]; 96.6 mg/kg/day in diet)	% Lowering Galacitol Accumulation in Vivo, Diaphragm ([2]; 49.3 mg/kg/day in diet)	% Lowering Galacitol Accumulation in Vivo, Diaphragm ([2]; 93.6 mg/kg/day in diet)	% Lowering Galacitol Accumulation in Vivo, Sciatic Nerve ([3]; 49.3 mg/kg/day in diet)	% Lowering Galacitol Accumulation in Vivo, Sciatic Nerve ([3]; 93.6 mg/kg/day in diet)
COC(=O)NC(=O)CC1C(=O)N(Cc2nc3cc(C(F)(F)F)ccc3s2)C(=O)c2ccccc21 (stereo not shown) [H]	95%	81%	87%	61%	73%	–	–	–	–
COC(=O)NC(=O)CC1C(=O)N(Cc2nc3cc(C(F)(F)F)ccc3s2)C(=O)c2ccc(F)cc21 (stereo not shown) [F]	83%	–	–	–	–	74%	81%	39%	59%
